From patent US20090099213A1, “Ortho-Condensed Pyridine and Pyrimidine Derivatives (e.g., Purines) as Protein Kinases Inhibitors” (Astex Therapeutics Limited, priority 2004, published 2009)
Where two headings read alike, the source gives them in different places.

Experiments:
PKB-PIF = target: T1, PKB-PIF (Homo sapiens, UniProt P31751); test: Measurement of PKB kinase inhibitory activity (IC50), radiometric filter plate assay; assay type: biochemical
T1 construct: fusion partner; made in house
From the text: The inhibition of protein kinase B (PKB) activity by compounds can be determined essentially as described by Andjelkovic et al. (Mol. Cell. Biol. 19, 5061-5072 (1999)) but using a fusion protein described as PKB-PIF and described in full by Yang et al (Nature Structural Biology 9, 940-944 (2002)). The protein is purified and activated with PDK1 as described by Yang et al. The peptide AKTide-2T (H-A-R-K-R-E-R-T-Y-S-F-G-H-H-A-OH) obtained from Calbiochem (#123900) is used as a substrate. A final concentration of 0.6 nM enzyme is used in a buffer that includes 20 mM MOPS pH 7.2, 30 μM ATP/γ^33P-ATP and 25 μM substrate. Compounds are added in DMSO solution to a final DMSO concentration of 2.5%. The reaction is allowed to proceed for 20 minutes before addition of excess orthophosphoric acid to quench activity. The reaction mixture is transferred to a phosphocellulose filter plate where the peptide binds and the unused ATP is washed away. After washing, scintillant is added and the incorporated activity measured by scintillation counting.
The % inhibition of the PKB activity is calculated and plotted in order to determine the concentration of test compound required to inhibit 50% of the PKB activity (IC50).

PKA catalytic domain = target: T2, PKA catalytic domain (Homo sapiens, UniProt P17612); test: Measurement of PKA kinase inhibitory activity (IC50), radiometric filter plate assay; assay type: biochemical; conditions: 1 nM enzyme, 40 μM ATP, 20 minutes
T2 construct: using the PKA catalytic domain from Upstate Biotechnology (#14-440); purchased Upstate Biotechnology 14-440
Protocol: Compounds of the invention can be tested for PK inhibitory activity using the PKA catalytic domain from Upstate Biotechnology (#14-440) and the 9 residue PKA specific peptide ([…]), also from Upstate Biotechnology (#12-257), as the substrate. A final concentration of 1 nM enzyme is used in a buffer that includes 20 mM MOPS pH 7.2, 40 μM ATP/γ^33P-ATP and […] substrate. Compounds are added in dimethylsulphoxide (DMSO) solution to a final DMSO concentration of 2.5%. The reaction is allowed to proceed for 20 minutes before addition of excess orthophosphoric acid to quench activity. Unincorporated γ^33P-ATP is then separated from phosphorylated proteins on a Millipore MAPH filter plate. The plates are washed, scintillant is added and the plates are then subjected to counting on a Packard Topcount.
The % inhibition of the PKA activity is calculated and plotted in order to determine the concentration of test compound required to inhibit 50% of the PKA activity (IC50).

[1] = 0.6 nM enzyme, 30 μM ATP, 25 μM AKTide-2T substrate, 20 minutes, read-out: IC50 (PKB activity)

T1 sequence (P31751 with tags, fused parts or gaps limits assumed): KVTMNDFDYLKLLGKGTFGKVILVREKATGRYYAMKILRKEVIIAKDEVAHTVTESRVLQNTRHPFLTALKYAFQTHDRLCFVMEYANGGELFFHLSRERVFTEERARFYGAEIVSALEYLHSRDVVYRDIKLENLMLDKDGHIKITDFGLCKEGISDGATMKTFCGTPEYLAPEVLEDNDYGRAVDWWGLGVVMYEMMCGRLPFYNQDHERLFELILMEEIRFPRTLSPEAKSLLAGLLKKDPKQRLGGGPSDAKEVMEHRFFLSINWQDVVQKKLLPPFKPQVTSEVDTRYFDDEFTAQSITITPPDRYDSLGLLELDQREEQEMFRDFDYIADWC

Row | IC50 (PKB-PIF; [1]) | IC50 (PKA catalytic domain) | SMILES | IC50 (PKB-PIF)
1 | < 10 µM | – | NC(c1ccc(Cl)cc1)C1CCN(c2ccnc3[nH]ccc23)CC1 (single isomer, unassigned) [Example 32, C-(4-Chlorophenyl)-C-[1-(1H-pyrrolo[2,3-b]pyridin-4-yl)piperidin-4-yl]methylamine] | –
2 | < 10 µM | – | CNCCCNc1ncnc2[nH]cnc12 [Example 1, N-Methyl-N′-(9H-purin-6-yl)-propane-1,3-diamine] | –
3 | < 10 µM | – | CNCCCNc1ncnc2[nH]c(=O)[nH]c12 [Example 2, 6-(3-Methylamino-propylamino)-7,9-dihydro-purin-8-one] | –
4 | < 10 µM | – | NC(CCNc1ncnc2[nH]cnc12)c1ccc(F)cc1 (centres unmarked) [Example 3, 1-(4-Fluorophenyl)-N^3-(9H-purin-6-yl)propane-1,3-diamine] | –
5 | < 10 µM | < 150 µM | NC(CCNc1ncnc2[nH]c(=O)[nH]c12)c1ccc(F)cc1 (centres unmarked) [Example 4, 6-[3-Amino-3-(4-fluorophenyl)propylamino]-7,9-dihydropurin-8-one] | –
6 | < 10 µM | < 10 µM | NC(CCNc1ncnc2[nH]cnc12)c1ccc(Cl)cc1 (centres unmarked) [Example 5, 1-(4-Chlorophenyl)-N^3-(9H-purin-6-yl)propane-1,3-diamine] | –
7 | < 10 µM | < 10 µM | CNCc1ccc(-c2ncnc3[nH]cnc23)cc1 [Example 6, Methyl-(4-(9H-purin-6-yl)benzyl)amine] | –
8 | < 10 µM | < 10 µM | CNCc1cccc(-c2ncnc3[nH]cnc23)c1 [Example 7, Methyl-(3-(9H-purin-6-yl)benzyl)amine] | –
9 | < 50 µM | – | N#CCc1ccc(-c2ncnc3[nH]cnc23)cc1 [Example 8, (4-(9H-purin-6-yl)phenyl)acetonitrile] | –
10 | < 50 µM | – | NCCc1ccc(-c2ncnc3[nH]cnc23)cc1 [Example 9, 2-(4-(9H-Purin-6-yl)phenyl)ethylamine] | –
11 | – | – | NCCc1cccc(-c2ncnc3[nH]cnc23)c1 [Example 10, 2-(3-(9H-purin-6-yl)phenyl)ethylamine] | < 10 µM
12 | < 50 µM | – | NC(=O)C1CCN(c2ncnc3[nH]cnc23)CC1 [Example 11, 1-(9H-Purin-6-yl)piperidine-4-carboxylic Acid Amide] | –
13 | < 10 µM | < 10 µM | NCC1CCN(c2ncnc3[nH]cnc23)CC1 [Example 12, C-[1-(9H-Purin-6-yl)piperidin-4-yl]methylamine] | –
14 | < 10 µM | – | NC(c1ccccc1)C1CCN(c2ncnc3[nH]c(=O)[nH]c23)CC1 (centres unmarked) [Example 13, 6-[4-(Aminophenylmethyl)piperidin-1-yl]-7,9-dihydropurin-8-one] | –
15 | < 10 µM | < 10 µM | NC(c1ccc(Cl)cc1)C1CCN(c2ncnc3[nH]c(=O)[nH]c23)CC1 (centres unmarked) [Example 14, 6-[4-(Amino(4-chlorophenyl)methyl)piperidin-1-yl]-7,9-dihydropurin-8-one] | –
16 | < 10 µM | – | NCC1CCN(c2ncnc3[nH]c(=O)[nH]c23)CC1 [Example 15, 6-(4-Aminomethylpiperidin-1-yl)-7,9-dihydropurin-8-one] | –

Row | IC50 (PKB-PIF; [1]) | IC50 (PKA catalytic domain) | SMILES | IC50 (PKB-PIF)
17 | < 10 µM | – | NCCCOc1cccc(-c2ncnc3[nH]cnc23)c1 [Example 16, 3-[3-(9H-Purin-6-yl)-phenoxy]-propylamine] | –
18 | < 10 µM | < 10 µM | NCC1CCN(c2ncnc3[nH]ncc23)CC1 [Example 17, C-[1-(1H-Pyrazolo[3,4-d]pyrimidin-4-yl)-piperidin-4-yl]-methylamine] | –
19 | < 10 µM | < 10 µM | NCC1CCN(c2ncnc3[nH]ccc23)CC1 [Example 18, C-[1-(7H-Pyrrolo[2,3-d]pyrimidin-4-yl)-piperidin-4-yl]-methylamine] | –
20 | < 10 µM | – | NC(c1ccccc1)c1ccc(-c2ncnc3[nH]cnc23)cc1 (centres unmarked) [Example 19, C-Phenyl-C-[4-(9H-purin-6-yl)-phenyl]-methylamine] | –
21 | < 10 µM | < 10 µM | NC(Cc1ccccc1)c1ccc(-c2ncnc3[nH]cnc23)cc1 (centres unmarked) [Example 20, 2-Phenyl-1-[4-(9H-purin-6-yl)-phenyl]-ethylamine] | –
22 | < 50 µM | – | NC(Cc1ccccc1)C1CCN(c2ncnc3[nH]c(=O)[nH]c23)CC1 (centres unmarked) [Example 21, 6-[4-(1-Amino-2-phenylethyl)piperidin-1-yl]-7,9-dihydropurin-8-one] | –
23 | < 10 µM | < 10 µM | Clc1ccc(C2(c3ccc(-c4ncnc5[nH]cnc45)cc3)CCNCC2)cc1 [Example 22, 6-(4-[4-(4-Chlorophenyl)-piperidin-4-yl)-phenyl)-9H-purine] | –
24 | < 10 µM | < 10 µM | Clc1ccc(C2(c3ccc(-c4ncnc5[nH]ccc45)cc3)CCNCC2)cc1 [Example 23, 4-{4-[4-(4-Chloro-phenyl)-piperidin-4-yl]-phenyl}-7H-pyrrolo[2,3-d]pyrimidine] | –
25 | < 10 µM | – | NC(c1ccccc1)C1CCN(c2ncnc3[nH]ccc23)CC1 (centres unmarked) [Example 24, C-Phenyl-C-[1-(7H-pyrrolo[2,3-d]pyrimidin-4-yl)-piperidin-4-yl]-methylamine] | –
26 | < 10 µM | < 10 µM | NC(c1ccc(Cl)cc1)C1CCN(c2ncnc3[nH]ccc23)CC1 (centres unmarked) [Example 25, C-4-Chlorophenyl-C-[1-(7H-pyrrolo[2,3-d]pyrimidin-4-yl)-piperidin-4-yl]-methylamine] | –
27 | < 10 µM | – | NC(c1ccc(Cl)cc1)C1CCN(c2ncnc3[nH]cnc23)CC1 (centres unmarked) [Example 26, C-(4-Chloro-phenyl)-C-[1-(9H-purin-6-yl)-piperidin-4-yl]-methylamine] | –
28 | < 10 µM | – | Clc1ccc(C2(c3ccc(-c4ccnc5[nH]ccc45)cc3)CCNCC2)cc1 [Example 27, 4-{4-[4-(4-Chloro-phenyl)-piperidin-4-yl]-phenyl}-1H-pyrrolo[2,3-b]pyridine] | –
29 | < 10 µM | – | NC(c1ccc(Cl)cc1)c1ccc(-c2ncnc3[nH]cnc23)cc1 (centres unmarked) [Example 28, C-(4-Chloro-phenyl)-C-[4-(9H-purin-6-yl)-phenyl]-methylamine] | –
30 | < 10 µM | < 10 µM | NC(c1ccc(Cl)cc1)C1CCN(c2ccnc3[nH]ccc23)CC1 (centres unmarked) [Example 29, C-(4-Chlorophenyl)-C-[1-(1H-pyrrolo[2,3-b]pyridin-4-yl)piperidin-4-yl]methylamine] | –
31 | < 10 µM | < 10 µM | CNCC(c1ccc(Cl)cc1)c1ccc(-c2ccnc3[nH]ccc23)cc1 (centres unmarked) [Example 30, {2-(4-Chloro-phenyl)-2-[4-(1H-pyrrolo[2,3-b]pyridin-4-yl)-phenyl]-ethyl}-methyl-amine] | –
32 | < 10 µM | < 10 µM | NCC1CCCN(c2ncnc3[nH]ccc23)C1 (centres unmarked) [Example 31, C-[1-(7H-Pyrrolo[2,3-d]pyrimidin-4-yl)piperidin-3-yl]methylamine] | –
